# Target: T1, MaPylRS^IFGFF (Methanomethylophilus alvi, UniProt M9SC49, L125I/Y126F/M129G/V168F/Y206F)
# T1 construct: gene MMALV_11280; C-terminal 6-His tag; pET29, E. coli BL21(DE3), Ni-NTA
# Assay: X-ray crystallography, […] Å
# Assay type: binding
# Conditions: MgCl2, pH 8; three Mg2+ ions; triethylene glycol in the amino acid pocket
# T1 sequence (M9SC49 entry or part of it L125I/Y126F/M129G/V168F/Y206F): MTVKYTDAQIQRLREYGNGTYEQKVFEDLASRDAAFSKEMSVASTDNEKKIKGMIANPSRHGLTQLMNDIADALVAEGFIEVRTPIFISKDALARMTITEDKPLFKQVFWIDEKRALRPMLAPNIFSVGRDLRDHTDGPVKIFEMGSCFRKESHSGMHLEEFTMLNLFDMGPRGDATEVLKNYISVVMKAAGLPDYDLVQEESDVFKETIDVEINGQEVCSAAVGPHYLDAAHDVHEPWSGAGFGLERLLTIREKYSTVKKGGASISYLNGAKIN
smiles,measurement,value
Nc1ncnc2c1ncn2[C@@H]1O[C@H](COP(=O)(O)OP(=O)(O)NP(=O)(O)O)[C@@H](O)[C@H]1O [AMP-PNP],"X-ray crystallography, 1.8 Å","bound to the nonreactive ATP analogue adenylyl‐imidodiphosphate (AMP‐PNP, PDB: 8C49"

# Reference: publication PMC10127257, “Engineering mutually orthogonal PylRS/tRNA pairs for dual encoding of functional histidine analogues” (Protein Science : A Publication of the Protein Society, 2023)
